The results in this text go back to PubChem BioAssay (NCI).

Where “and” joins values, the source holds several entries; their conditions need not be identical. Identical values can stand only once.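 1) Cells in 96-well plates. 2) Compound, 48 h, 5 concentrations. 3) Linear interpolation between surrounding doses. 4) Unreached endpoint = highest concentration. GI50 marks 50% less growth. Definition used: TGI = concentration required for complete inhibition of growth.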

Holding throughout (test): NCI tumour cell line growth inhibition, 48 h
For experiment [1], the system named is A549 NSCLC.
Experiment [2] concerns BT-549 breast.
Experiment [3] relates to HCT-116 colon.
The subject of experiment [4] is NCI-H226 lung.
In experiment [5] the test system is OVCAR-8 ovarian.
Experiment [6] relates to SNB-75 CNS.
Experiment [7] has as its system SW-620 colon.
Experiment [8] has as its system T-47D breast.
Experiment [9] deals with U251 CNS.
Experiment [10] relates to UACC-62 melanoma.

Consider `O=C(c1cccnc1)c1cc(-c2ccccn2)c(=O)n2ccccc12`, for which the GI50 in experiment [1], in experiment [2], in experiment [3], in experiment [4], in experiment [5] and in experiment [6] was greater than 100 µM each time. For the same compound, the GI50 in [7], in experiment [8], in [9] and in experiment [10] was greater than 100 µM in each case. Besides, the TGI in experiment [1], in experiment [2], in experiment [3], in experiment [4], in experiment [5] and in experiment [6] was greater than 100 µM in each case. The TGI in experiment [7], in [8], in [9] and in experiment [10] was greater than 100 µM in each case.
Consider `CN(C(=O)c1ccncc1)c1ccccc1`, for which the TGI in experiment [1], in experiment [2], in [3], in [4], in experiment [5] and in experiment [6] was greater than 100 µM each time. Also, the TGI in experiment [7], in experiment [8], in experiment [9] and in experiment [10] was greater than 100 µM throughout.
Take `CCCCN(CCCC)c1ccc(C(=NC(C)CCCN(CC)CC)c2ccc(N(C)C)cc2)cc1` (centres undefined): the GI50 in experiment [1] was 1.01 µM; in experiment [2], 0.838 µM; in [3] it was 0.537 µM; in experiment [4] it was 1.18 µM; in [5], 0.99 µM; in experiment [6] it was 0.734 µM. For the same compound, the GI50 in experiment [7] is 0.793 µM; in [8] it was 0.809 µM; in experiment [9] it was 0.81 µM; in experiment [10] it was 0.909 µM. Besides, the TGI is 2.57 µM in experiment [1]; 1.73 µM in [2]; 1.27 µM in experiment [3]; 3.06 µM in experiment [4]; 2.09 µM in [5]; 1.56 µM in experiment [6]. Further, the TGI came out at 1.68 µM in experiment [7], 1.89 µM in [8], 1.58 µM in experiment [9] and 1.91 µM in experiment [10].
As to `Cn1ccnc1C(=O)/C=C/c1ccc(CC(=O)Nc2ccc(C(F)(F)F)cc2)cc1`, the GI50 is 3.82 µM in experiment [1]; 2.56 µM in experiment [2]; 2.4 µM in experiment [3]; 4.19 µM in [4]; 4.9 µM in experiment [5]; 2.5 µM in experiment [6]. Further, the GI50 in experiment [7] is 4.17 µM; in experiment [8] it was 5.95 µM; in [9], 1.89 µM; in [10], 3.16 µM. Besides, the TGI is 10.3 µM in [1]; 5.33 µM in experiment [2]; 4.94 µM in experiment [3]; 16 µM in experiment [4]; greater than 16.7 µM in experiment [5]; 8.01 µM in experiment [6]. The TGI in experiment [7] is greater than 16.7 µM; in [8] it was greater than 16.7 µM; in [9], 3.93 µM; in [10] it was 7.65 µM.
On to `Cc1ccc2c(c1)C(=O)c1c-2n(CCCBr)c(=O)c2cc([N+](=O)[O-])ccc12`, for which the GI50 in experiment [1] was greater than 100 µM; in [2], greater than 100 µM; in experiment [3] it was 18.7 µM; in experiment [4], 96.9 µM; in [5], greater than 100 µM; in experiment [6] it was 48.1 µM. Further, the GI50 in experiment [7] is 51.6 µM; in experiment [8], 7.69 µM; in [9], 24.8 µM; in experiment [10], 26.1 µM. The TGI in experiment [1], in experiment [2], in experiment [3], in experiment [4], in experiment [5] and in [6] was greater than 100 µM in each case. In addition, the TGI was greater than 100 µM in experiment [7], 60.8 µM in [8], greater than 100 µM in experiment [9] and greater than 100 µM in experiment [10].
On to `COc1cc(C(=O)/C=C/c2cccnc2Nc2ccccc2)cc(OC)c1OC`, for which the GI50 was 1.3 µM in experiment [1]; 1.26 µM in [2]; 0.337 µM in experiment [3]; 1.23 µM in experiment [4]; 1.27 µM in experiment [5]; 1.13 µM in [6]. The GI50 in experiment [7] was 0.422 µM; in experiment [8], 1.43 µM; in [9], 1.12 µM; in [10], 1.29 µM. In addition, the TGI in experiment [1] was found to be 2.86 µM; in experiment [2] it was 2.54 µM; in experiment [3] it was 1.31 µM; in experiment [4] it was 2.58 µM; in experiment [5], 3.49 µM; in experiment [6], 2.34 µM. Moreover, the TGI in experiment [7] is 1.66 µM; in experiment [8], 3.07 µM; in experiment [9], 2.39 µM; in [10], 2.6 µM.
With `c1ccc(P(CCP(CCP(c2ccccc2)c2ccccc2)c2ccccc2)CCP(c2ccccc2)c2ccccc2)cc1` (centres undefined), the TGI in experiment [1], in experiment [2], in [3], in experiment [4], in [5] and in experiment [6] was greater than 10 µM throughout. Further, the TGI in experiment [7] was greater than 10 µM; in [8], 4.79 µM; in experiment [9], greater than 10 µM; in experiment [10], greater than 10 µM. For the same compound, the GI50 in [5] was > 10 µM and 1.87 µM; in [6], 4.55 µM and 1.91 µM; in [9] it was > 10 µM and 1.04 µM.
On to `Nc1nc(N)c(N=O)c(OCC2CCCCC2)n1`, for which the GI50 is 15 µM in [1]; 4.8 µM in experiment [2]; 6.65 µM in experiment [4]; 20.4 µM in experiment [7]; 4.09 µM in [8]; 13.9 µM in experiment [9]. Also, the TGI in experiment [1] was > 100 µM and 79.7 µM; in experiment [2], 61 µM and > 84.9 µM; in [3] it was greater than 100 µM; in [4], > 100 µM and 46.5 µM; in experiment [5], greater than 100 µM; in experiment [6], 42.3 µM and 50.2 µM. Also, the TGI in experiment [7] is greater than 100 µM; in [8] it was > 58.6 µM and 23.9 µM; in [9] it was > 100 µM and 52.5 µM; in [10], 42.6 µM and 40.7 µM.
